Blank lines part the entries; values can stand above or below the molecule they belong to.
Tests used:
[1] = target: human PD-L1 on CHO cells stably expressing human PD-L1 (human) (UniProt Q9NZQ7); assay: ex vivo biodistribution with blocking dose
[2] = target: recombinant human PD-L1(B7-H1)-His-tag protein (human) (UniProt Q9NZQ7); assay: AlphaScreen or HTRF
[3] = target: human PD-L1 on CHO cells stably expressing human PD-L1 (human) (UniProt Q9NZQ7); assay: radioligand binding
[4] = target: human PD-L1 on CHO cells stably expressing human PD-L1 (human) (UniProt Q9NZQ7); assay: PET imaging and ex vivo biodistribution
[5] = tested on: hPD-L1 cells (CHO stably expressing human PD-L1) vs CHO cells; assay: In vitro binding/uptake of [64Cu]WL12 in hPD-L1 and CHO cells; format: cell-based, Chinese hamster
[6] = tested on: MDAMB231 and SUM149 cells; format: cell-based, human; conditions: MDAMB231 high, SUM149 low PD-L1 expression
[7] = tested on: hPD-L1 and CHO tumors; assay: Ex vivo biodistribution and blocking in NSG mice with hPD-L1 and CHO tumors; parameters: species or system mouse; conditions: co-injected with excess WL12 (50 μg, 2 mg/kg), 2 h

Sequence of human PD-L1 on CHO cells stably expressing human PD-L1 (human) (Q9NZQ7 19-290): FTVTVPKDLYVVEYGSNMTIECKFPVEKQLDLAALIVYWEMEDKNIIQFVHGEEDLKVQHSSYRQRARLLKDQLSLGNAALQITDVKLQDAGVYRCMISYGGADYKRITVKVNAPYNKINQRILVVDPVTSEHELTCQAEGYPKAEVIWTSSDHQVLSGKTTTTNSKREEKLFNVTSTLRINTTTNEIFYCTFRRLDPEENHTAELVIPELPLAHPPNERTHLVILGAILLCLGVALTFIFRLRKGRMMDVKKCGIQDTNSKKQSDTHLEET
Sequence of recombinant human PD-L1(B7-H1)-His-tag protein (human) (Q9NZQ7 19-238): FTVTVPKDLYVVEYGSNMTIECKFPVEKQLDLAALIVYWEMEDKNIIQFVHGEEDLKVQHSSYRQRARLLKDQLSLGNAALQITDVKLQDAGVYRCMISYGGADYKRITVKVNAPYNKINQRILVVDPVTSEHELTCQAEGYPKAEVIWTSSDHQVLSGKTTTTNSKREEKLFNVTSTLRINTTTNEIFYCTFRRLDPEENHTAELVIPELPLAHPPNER

percent reduction in %ID/g of [64Cu]WL12 in hPD-L1 tumors with excess WL12 [1]: > 75% | IC50 [2]: 0.022 µM
Molecule: WL12 (peptide)

percent uptake of the incubated dose [3]: > 50% | tumor uptake at 1 h (%ID/g) [4]: 14.9 %ID/g
Molecule: [64Cu]WL12 (peptide)

IC50 [2]: 0.0029 µM
Molecule: WL12-Cu (peptide)

Molecule: CCCC[C@H]1C(=O)N(C)[C@@H](CCCC)C(=O)N[C@@H](CCCNC(=O)CCC(C(=O)O)N2CCN(CC(=O)O)CCN(CC(=O)O)CCN(CC(=O)O)CC2)C(=O)N[C@H](C(=O)NCC(N)=O)CSCC(=O)N[C@@H](Cc2ccc(O)cc2)C(=O)N(C)[C@@H](C)C(=O)N[C@@H](CC(N)=O)C(=O)N2CCC[C@H]2C(=O)N[C@@H](Cc2c[nH]cn2)C(=O)N[C@@H](CC(C)C)C(=O)N2C[C@H](O)C[C@H]2C(=O)N[C@@H](Cc2c[nH]c3ccccc23)C(=O)N[C@@H](CO)C(=O)N[C@@H](Cc2cn(C)c3ccccc23)C(=O)N1C (some centres unmarked) [[^64Cu]WL12, metal not drawn]
uptake of the incubated dose in hPD-L1 cells ([5]; hPD-L1 cells incubated with [64Cu]WL12 for 1 h): > 50% | reduction in bound [64Cu]WL12 in the presence of blocking dose of WL12 ([5]; hPD-L1 cells, 1 μM blocking dose of WL12): > 95% | increase in bound radioactivity in hPD-L1 cells compared to negative control CHO cells ([5]; incubation 1 h): 43 fold | uptake of radioactivity in MDAMB231 cells compared to SUM149 cells [6]: Two-fold higher | change in %ID/g in control CHO tumors on blocking [7]: no significant difference | change in kidney uptake on blocking [7]: reduced uptake
